Experimental data published in patent US6812346B2, “Substituted pyridines as selective cyclooxygenase-2 inhibitors” (Merck Frosst Canada and Co., priority 1996, dated 2004).
Like-named read-outs stand apart in the source and are kept apart here.

Key:
COX-1 = target: T1, COX-1 (Homo sapiens, UniProt P23219); assay: Cox-1 U937 (COX-1 activity from U937 cell microsomes); format: biochemical; conditions: U937, PGE2 synthesis in presence of AA
T1 construct: Assay of COX-1 Activity from U937 Cell Microsomes; endogenous in cells; host or cells: U937 cells, 100,000 x g microsomal fraction
Method: Assay of COX-1 Activity from U937 Cell Microsomes
U 937 cells are pelleted by centrifugation at 500×g for 5 min and washed once with phosphate-buffered saline and repelleted. Cells are resuspended in homogenization buffer consisting of 0.1 M Tris-HCl, pH 7.4, 10 mM EDTA, 2 μg/ml leupeptin, 2 μg/ml soybean trypsin inhibitor, 2 μg/ml aprotinin and 1 mM phenyl methyl sulfonyl fluoride. The cell suspension is sonicated 4 times for 10 sec and is centrifuged at 10,000×g for 10 min at 4° C. The supernatant is centrifuged at 100,000×g for 1 hr at 4° C. The 100,000×g microsomal pellet is resuspended in 0.1 M Tris-HCl, pH 7.4, 10 mM EDTA to approximately 7 mg protein/ml and stored at −80° C.
Assays are performed in duplicate in a final volume of 250 μl. Initially, 5 μl of DMSO vehicle or drug in DMSO are added to 20 μl of 0.1 M Tris-HCl buffer, pH 7.4 containing 10 mM EDTA in wells of a 96-deepwell polypropylene titre plate. 200 μl of the microsomal preparation are then added and pre-incubated for 15 min at room temperature before addition of 25 μl of […] in […] Tris-HCl and 10 mM EDTA, pH 7.4. Samples are incubated for 40 min at room temperature and the reaction is stopped by the addition of 25 μl of 1 N HCl. Samples are neutralized with 25 μl of 1 N NaOH prior to quantitation of PGE2 content by radioimmunoassay (Dupont-NEN or Amersham assay kits). Cyclooxygenase activity is defined as the difference between PGE2 levels in samples incubated in the presence of arachidonic acid and ethanol vehicle.

COX-2 = target: T2, COX-2 (Homo sapiens, UniProt P35354); assay: Human whole blood assay, COX-2 (LPS-induced PGE2 production); format: cell-based
T2 sequence (P35354 18-604): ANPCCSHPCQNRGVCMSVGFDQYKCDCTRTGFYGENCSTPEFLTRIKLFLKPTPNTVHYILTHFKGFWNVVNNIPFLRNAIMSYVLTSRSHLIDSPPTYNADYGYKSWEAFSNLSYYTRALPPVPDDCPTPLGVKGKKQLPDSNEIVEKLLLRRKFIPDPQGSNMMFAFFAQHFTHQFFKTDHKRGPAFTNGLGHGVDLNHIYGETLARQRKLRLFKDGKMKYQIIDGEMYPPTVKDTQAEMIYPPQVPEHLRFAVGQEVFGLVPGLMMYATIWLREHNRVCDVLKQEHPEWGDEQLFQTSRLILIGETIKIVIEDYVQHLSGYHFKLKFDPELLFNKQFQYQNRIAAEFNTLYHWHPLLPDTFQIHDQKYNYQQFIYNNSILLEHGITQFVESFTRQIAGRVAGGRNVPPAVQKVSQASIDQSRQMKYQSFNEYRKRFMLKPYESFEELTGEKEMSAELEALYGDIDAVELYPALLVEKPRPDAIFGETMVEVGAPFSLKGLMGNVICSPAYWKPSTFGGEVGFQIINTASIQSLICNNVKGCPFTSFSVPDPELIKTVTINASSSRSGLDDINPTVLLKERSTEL
Text: As well, platelets in whole blood contain a large amount of the COX-1 enzyme. Immediately following blood clotting, platelets are activated through a thrombin-mediated mechanism. This reaction results in the production of thromboxane B2 (TxB2) via activation of COX-1. Thus, the effect of test compounds on TxB2 levels following blood clotting can be examined and used as an index for COX-1 activity. Therefore, the degree of selectivity by the test compound can be determined by measuring the levels of PGE2 after LPS induction (COX-2) and TxB2 following blood clotting (COX-1) in the same assay.
Step A: COX-2 (LPS-induced PGE2 Production)
Fresh blood is collected in heparinized tubes by venipuncture from both male and female volunteers. The subjects have no apparent inflammatory conditions and have not taken any NSAIDs for at least 7 days prior to blood collection. Plasma is immediately obtained from a 2 mL blood aliquot to use as blank (basal levels of PGE2).

[1] = system: carrageenan-induced rat paw edema; assay: Rat paw edema assay; format: in vivo; conditions: male Sprague-Dawley rats, po, 1 hr before carrageenan, paw volume 3 hr later; for ED50: Rattus norvegicus
Method: Male Sprague-Dawley rats (150-200 g) are fasted overnight and are given, po, either vehicle (1% methocel or 5% Tween 80) or a test compound. One hr later, a line is drawn using a permanent marker at the level above the ankle in one hind paw to define the area of the paw to be monitored. The paw volume (V0) is measured using a plethysmometer (Ugo-Basile, Italy) based on the principle of water displacement. The animals are then injected subplantarly with 50 μl of 1% carrageenan solution in saline (FMC Corp, Maine) into the paw using an insulin syringe with a 25-gauge needle (i.e. 500 μg carrageenan per paw). Three hr later, the paw volume (V3) is measured and the increases in paw volume (V3-V0) are calculated. The animals are sacrificed by CO2 asphyxiation and the absence or presence of stomach lesions scored. Data is compared with the vehicle-control values and percent inhibition calculated. All treatment groups are coded to eliminate observer bias.

[2] = Cox-1 U937 IC50 over Cox-2 whole blood IC50
[3] = human whole blood, LPS-induced PGE2 production, 24 hours at 37° C., read-out: Cox-2 Whole Blood (IC50)

T1 sequence (P23219 24-599): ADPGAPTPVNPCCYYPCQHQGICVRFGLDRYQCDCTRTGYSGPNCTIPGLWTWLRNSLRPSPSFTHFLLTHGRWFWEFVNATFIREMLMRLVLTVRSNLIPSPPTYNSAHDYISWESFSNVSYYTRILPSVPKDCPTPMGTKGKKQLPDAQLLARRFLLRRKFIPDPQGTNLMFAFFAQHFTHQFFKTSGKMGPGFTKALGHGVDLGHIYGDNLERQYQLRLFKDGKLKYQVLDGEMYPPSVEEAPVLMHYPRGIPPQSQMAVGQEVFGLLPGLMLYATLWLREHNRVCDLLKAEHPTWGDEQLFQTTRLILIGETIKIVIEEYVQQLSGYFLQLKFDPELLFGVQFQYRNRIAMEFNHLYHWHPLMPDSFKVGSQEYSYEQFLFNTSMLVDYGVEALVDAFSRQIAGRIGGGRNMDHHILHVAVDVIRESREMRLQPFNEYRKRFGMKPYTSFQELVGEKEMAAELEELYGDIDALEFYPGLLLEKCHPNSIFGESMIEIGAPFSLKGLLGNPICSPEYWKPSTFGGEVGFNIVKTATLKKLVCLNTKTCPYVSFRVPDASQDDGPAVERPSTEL

Compound: Cc1cnc(-c2ccccc2)c(-c2ccc(S(C)(=O)=O)cc2)c1 [Example 13, 5-Methyl-3-(4-methylsulfonyl)phenyl-2-phenylpyridine]
- IC50 (COX-1): 3000 nM
- Selectivity Ratio (COX-2; [2]): 6
- IC50 (COX-2; [3]): 500 nM

Compound: CS(=O)(=O)c1ccc(-c2cc(C(F)(F)F)cnc2-c2ccccc2)cc1 [Example 1, 3-(4-Methylsulfonyl)phenyl-2-phenyl-5-trifluoromethylpyridine]
- IC50 (COX-1): 1500 nM
- ED50 [1]: 5.4 mg/kg
- Selectivity Ratio (COX-2; [2]): 4.4
- IC50 (COX-2; [3]): 300 nM

Compound: CS(=O)(=O)c1ccc(-c2cccnc2-c2ccccc2)cc1 [Aa, reference compound]
- ED50 [1]: > 10 mg/kg

Compound: CS(=O)(=O)c1ccc(-c2cc(C(F)(F)F)cnc2-c2ccc(F)cc2)cc1 [Example 4, 2-(4-Fluorophenyl)-3-(4-methylsulfonyl)phenyl-5-trifluoromethylpyridine]
- IC50 (COX-1): 1000 nM
- Selectivity Ratio (COX-2; [2]): 3.3
- IC50 (COX-2; [3]): 300 nM

Compound: Cc1ccc(-c2ncc(Cl)cc2-c2ccc(S(C)(=O)=O)cc2)cn1.Cl [Example 59, 5-Chloro-3-(4-methylsulfonyl)phenyl-2-(2-methyl-5-pyridinyl)pyridine Hydrochloride]
- Rat Paw Edema (ED50, mg/kg) [1]: 0.8 mg/kg

Compound: Cc1ccc(-c2ncc(Cl)cc2-c2ccc(S(C)(=O)=O)cc2)cn1 [Example 23, 5-Chloro-3-(4-methylsulfonyl)phenyl-2-(2-methyl-5-pyridinyl)pyridine]
- IC50 (COX-1): > 10000 nM

Compound: CS(=O)(=O)O.CS(=O)(=O)c1ccc(-c2cc(Cl)cnc2-c2cccnc2)cc1 [Example 46, 5-Chloro-3-(4-methylsulfonyl)phenyl-2-(3-pyridyl)pyridine hydromethanesulfonate]
- Rat Paw Edema (ED50, mg/kg) [1]: 3.3 mg/kg

Compound: CS(=O)(=O)c1ccc(-c2cc(Br)cnc2-c2cccnc2)cc1 [Example 32]
- IC50 (COX-1): > 10000 nM
- ED50 [1]: 0.9 mg/kg
- IC50 (COX-2; [3]): 1200 nM

Compound: CS(=O)(=O)c1ccc(-c2cc(Cl)cnc2-c2cccnc2)cc1 [Example 21, 5-Chloro-3-(4-methylsulfonyl)phenyl-2-(3-pyridinyl)pyridine]
- IC50 (COX-1): 16000 nM
- ED50 [1]: 2.3 mg/kg
- Selectivity Ratio (COX-2; [2]): 16
- IC50 (COX-2; [3]): 1000 nM

Compound: CS(=O)(=O)c1ccc(-c2cc(Cl)cnc2-c2cccnc2)cc1.Cl [Example 47, 5-Chloro-3-(4-methylsulfonyl)phenyl-2-(3-pyridyl)pyridine hydrochloride]
- Rat Paw Edema (ED50, mg/kg) [1]: 2.4 mg/kg

Compound: Cc1cnc(-c2ccc(Cl)cc2)c(-c2ccc(S(C)(=O)=O)cc2)c1 [Example 14, 2-(4-Chlorophenyl)-5-methyl-3-(4-methylsulfonyl)phenylpyridine]
- IC50 (COX-1): 1400 nM
- Selectivity Ratio (COX-2; [2]): 2
- IC50 (COX-2; [3]): 700 nM

Compound: CCc1ccc(-c2ncc(Cl)cc2-c2ccc(S(C)(=O)=O)cc2)cn1 [Example 71, 5-Chloro-3-(4-methylsulfonyl)phenyl-2-(2-ethyl-5-pyridinyl)pyridine]
- IC50 (COX-1): > 10000 nM
- ED50 [1]: 1.6 mg/kg

Compound: CS(=O)(=O)c1ccc(-c2cc(C(F)(F)F)cnc2-c2ccc(Cl)cc2)cc1 [Example 3, 2-(4-Chlorophenyl)-3-(4-methylsulfonyl)phenyl-5-trifluoromethylpyridine]
- IC50 (COX-1): 1800 nM
- Selectivity Ratio (COX-2; [2]): 2
- IC50 (COX-2; [3]): 900 nM

Compound: CS(=O)(=O)c1ccc(-c2cccnc2-c2ccc(F)cc2)cc1 [Ab, reference compound]
- IC50 (COX-1): 2200 nM
- IC50 (COX-2; [3]): 4900 nM

Compound: CS(=O)(=O)c1ccc(-c2cc(C#N)cnc2-c2ccc(Cl)cc2)cc1 [Example 45, 5-Cyano-2-(4-chlorophenyl)-3-(4-methylsulfonyl)phenylpyridine]
- IC50 (COX-1): > 10000 nM
- ED50 [1]: 3 mg/kg
- Selectivity Ratio (COX-2; [2]): >4.5
- IC50 (COX-2; [3]): 2200 nM

Compound: CS(=O)(=O)c1ccc(-c2cc(Cl)cnc2-c2ccc(C3CC3)nc2)cc1 [Example 73, 5-Chloro-3-(4-methylsulfonyl)phenyl-2-(2-cyclopropyl-5-pyridinyl)pyridine]
- IC50 (COX-1): 7000 nM
- ED50 [1]: 2 mg/kg
- IC50 (COX-2): 1800 nM
- Selectivity Ratio (COX-2): 3.8

Compound: CS(=O)(=O)c1ccc(-c2cc(C(F)(F)F)cnc2-c2cccnc2)cc1 [Example 7, 3-(4-Methylsulfonyl)phenyl-2-(3-pyridinyl)-5-trifluoromethylpyridine]
- IC50 (COX-1): 5000 nM
